“Also recorded” adds a separate entry of the source. Marks after values point to notes of the source that are not given here.
Assays:
[1] = tested on: p16-3MR mice; assay: Next generation sequencing of circulating miRNAs in serum after induction (dox) and removal (GCV) of senescent cells; format: in vivo, mouse; settings: for log fold change: p16-3MR mice; for avg TPM dox: dox-treated p16-3MR mice
Experimental: p16-3MR (Demaria et al, 2014, Developmental Cell 31:722-733) mice were bred in house and maintained in the AALAC-accredited Buck Institute for Research on Aging (Novato, Calif.) animal facility. 10 to 12-week-old p16-3MR male mice were used for experiments. Mice were divided in 4 groups and each group consisted of 3 animals. In group A, control mice were injected with PBS. In group B, mice were treated with Ganciclovir (GCV) (Sigma-Aldrich) dissolved in PBS for 5 consecutive days. In group C, mice were treated with one dose of Doxorubicine hydrochloride (Sigma-Aldrich) dissolved in PBS. In group D, mice were first treated with Doxorubicine and then treated 10 days later with GCV. Mice were intraperitoneally injected with one dose of 10 mg/kg of Doxorubicine hydrochloride, and GCV was administered daily by intraperitoneal injections for 5 consecutive days at concentration of 25 mg/kg in PBS. 4 days after the last GCV dose, animals were euthanized with CO2 and blood was withdrawn immediately. Blood was then incubated for 30 min at room temperature and centrifuged at 3400×g for 10 min. Serum was carefully collected in a sterile tube without disturbing the cell pellet and stored at −80° C. for further experiments.
Total RNA extraction was performed from 200 μl of serum using the Qiagen miRNeasy™ extraction kit (Qiagen, Germany). RNA yield was quality checked for homogenous extraction efficiency and hemolysis on the basis qPCR amplification of spiked-in as well as hemolysis-responsive RNAs (Blondal et al). In total 2 μl total RNA were used for library preparation using the CleanTag library preparation protocol (Trilink Biotechnologies, USA), which uses chemically modified adapters to prevent adapter self-ligation. Library quality and yield was controlled using Bioanalyzer DNA-1000 chips. Due to the high purity, libraries were not purified prior to sequencing on an ILLUMINA™ NextSeq 500 sequencing system with 50 bp single-end reads.
Next-generation sequencing was performed at Exiqon (Denmark). Raw reads were quality filtered for a Q-score of 30 or higher. Adapter sequences were trimmed and the remaining reads were mapped against the mouse genome, miRBase, non-coding RNA databases and classified as either microRNAs, small RNAs, genome mapping RNAs or outmapped RNA sequences. Read counts were added for all microRNA isoforms (isomiRs) and normalized by dividing the microRNA read count by the total number of mapped reads and multiplying by 1 million (Tags Per Million). Tags per millions were used for data mining (PCA and hierarchical clustering) using the web-tool clustvis (Metsalu and Vilo 2015).
For differential expression analysis, the EdgeR statistical software package was used. For normalization, the trimmed mean of M-values method was used based on log-fold and absolute gene wise changes in expression levels between samples (TMM normalization). […] Additionally, the normalization step offsets under-sampling effects (due to highly expressed microRNAs dominating the read set) by identifying scaling factors that minimize log-fold changes between samples across the majority of microRNAs.
For exploratory data analysis we applied principal component analysis (PCA) to the dataset of 50 most variable microRNAs according to the coefficient of variation. The PCA plot clearly indicates an effect of […] (dox) treatment on circulating microRNA levels in p16-3MR mice compared to the PBS treated control animals (FIG. 2). […] Analysis of differentially circulating miRNAs was focused on changes between dox treated versus control (PBS) to identify those miRNAs that are modulated by induction of senescence, as well as dox-GCV vs dox, in order to identify miRNAs that change after removal of senescent cells. A p-value threshold of <0.05 without correction for multiple testing was used. […] GCV-treated animals are supposed to have a reduced number of senescent cells compared to PBS due to forced apoptosis. […]

[2] = tested on: p16-3MR mice; assay: RT-qPCR verification of serum circulating microRNA changes, one-way ANOVA; format: in vivo, mouse; settings: for regulation in serum after exposure to DOX compared to PBS: independent of gender, in words; for One-way ANOVA Senolytic Treatment (DOX/GCV) / One-way ANOVA Senescence (DOX vs PBS): serum; for One-way ANOVA Senolytic Treatment (DOX/GCV): DOX/GCV compared to DOX; for One-way ANOVA Senescence (DOX vs PBS): n=8 per group, male and female mice
Experimental: p16-3MR (Demaria et al, 2014, Developmental Cell 31:722-733) mice were bred in house and maintained in the AALAC-accredited Buck Institute for Research on Aging (Novato, Calif.) animal facility. 10 to 12-week-old p16-3MR […] mice were used for experiments. Mice were divided in 4 groups and each group consisted of 8 animals, 5 female, and 3 male, respectively. In group A, control mice were injected with PBS. In group B, mice were treated with Ganciclovir (GCV) (Sigma-Aldrich) dissolved in PBS for 5 consecutive days. In group C, mice were treated with one dose of Doxorubicine hydrochloride (Sigma-Aldrich) dissolved in PBS. In group D, mice were first treated with Doxorubicine and then treated 10 days later with GCV. Mice were intraperitoneally injected with one dose of 10 mg/kg of Doxorubicine hydrochloride, and GCV was administered daily by intraperitoneal injections for 5 consecutive days at concentration of 25 mg/kg in PBS. 4 days after the last GCV dose, animals were euthanized with CO2 and blood was withdrawn immediately. Blood was then incubated for 30 min at room temperature and centrifuged at 3400×g for 10 min. Serum was carefully collected in a sterile tube without disturbing the cell pellet and stored at −80° C. for further experiments.
Total RNA extraction was performed from 200 μl of serum using the Qiagen miRNeasy extraction kit (Qiagen, Germany). RNA yield was quality checked for homogenous extraction efficiency and hemolysis on the basis qPCR amplification of spiked-in as well as hemolysis-responsive RNAs (Blondal et al). In total 2 μl total RNA were used for reverse transcription using the Exiqon Universal RT kit II (Exiqon, Denmark). The obtained cDNA samples were pre-diluted 1:40 and subsequently mixed with SYBR Green® Mix (Exiqon, Denmark) to achieve a 1:100 dilution. The mix was distributed to primer-coated 384-well plates containing dried primer pairs for 96 selected microRNA or quality control assays. QPCR amplification was performed on a Roche LightCycler 480 II, using the manufacturer's recommendation for annealing, extension and denaturation.
Raw Cq-values were computed using the 2nd derivative method. Melting curves were checked for peaks to ensure specificity of the amplification reactions. Cq-values were subsequently normalized using Spike-In controls as references, to reduce technical noise in the data.
(§1) Statistical analysis was performed using Medcalc (version 18.2.1). Normal distribution was assessed using D'Agostino-Pearson test, where normality was accepted at p>0.05. One-way ANOVA together together with Student-Newman-Keuls test for all pairwise comparisons (post-hoc tests) was used to identify significant changes between groups (p<0.05). To assess the discriminatory power of individual microRNAs, receiver operating characteristic (ROC) analysis was applied. ROC curves were plotted using sensitivity (y-axis) and 1-specificity (x-axis) and the area under the ROC curve (AUC) was calculated. MicroRNAs with AUC-values of >0.7 were considered as good discriminators/biomarkers. MicroRNAs with AUC-values >0.8 were considered very good discriminators/biomarkers.

[3] = tested on: p16-3MR mice; assay: ROC analysis of discriminatory power of circulating microRNAs; format: in vivo, mouse; settings: serum, RT-qPCR, symbol after the number = significance; for ROC Analysis AUC Senescence: DOX vs PBS; for ROC Analysis AUC Senolytic Treatment: DOX/GCV vs DOX
Experimental: as §1
In order to assess the diagnostic power of circulating microRNAs for the exposure with senescence inducing substances (DOX) as well as the efficacy of senolytic treatment, ROC analysis was performed and the area-under-the-curve (AUC) was calculated. […] Table 23 below summarizes AUC values as well as 95% confidence intervals for 24 selected circulating microRNAs.

[4] = tested on: p16-3MR mice; assay: Pearson correlation of serum miRNA levels to miR-34a-5p and miR-27a-3p; design: species or system mouse; settings: for Pearson Correlcation coefficient miR44a-5p: correlation of serum level to miR44a-5p (so in the source); for Pearson Correlcation coefficient miR-27a-3p: correlation of serum level to miR-27a-3p
Source text: In order to extend these finding to potential additional miRNAs, we performed Pearson correlation to miR-34a-5p and miR-27a-3p, resulting in additional potential biomarkers (Table 18).

In the case of `Nc1nc(O)c2ncn(COC(CO)CO)c2n1` [ganciclovir, Ganciclovir, reference compound], the “serum miRNAs compared to PBS treated animals” value ([1]; GCV 25 mg/kg i.p. for 5 days, in words) was “consistent decrease”.
For “mmu-miR-144-5p: circulating microRNA, SEQ ID No. 7 (GGAUAUCAUCAUAUACUGUAAG; expressed or natural sequence; listed as Homo sapiens)”, the log fold change ([1]; serum miRNA, NGS, dox vs pbs) was −1.06 and the “avg TPM dox” value ([1]; serum miRNA, NGS) was 34.50 TPM.
“miR-34a-5p: circulating microRNA biomarker, SEQ ID No. 1 (UGGCAGUGUCUUAGCUGGUUGU; expressed or natural sequence; listed as Homo sapiens)” was tested, and the “regulation in serum after exposure to DOX compared to PBS” value [2] was “significantly (up- or down-regulated)”, the “One-way ANOVA Senolytic Treatment (DOX/GCV)” value [2] was “○” and the “One-way ANOVA Senescence (DOX vs PBS)” value [2] was “* (significant p < 0.05)”. For the same molecule, the “serum level after rescue with dox+GCV (removal of senescent cells)” value ([1]; NGS, in words) was “decreased”, the “serum level in dox-treated animals compared to PBS controls” value ([1]; NGS, in words) was “higher; also recorded: increased” and the “serum level after rescue with dox+GCV (removal of senescent cells)” value ([1]; NGS, in words, listed as miR-34a) was “significant decline”. The “avg TPM GCV” value ([1]; serum miRNA, NGS, comparison group of Table 17, printed GCV) was 8.00 TPM, the “avg TPM dox + GCV” value ([1]; serum miRNA, NGS, dox + GCV treated p16-3MR mice) was 2.33 TPM and the log fold change ([1]; serum miRNA, NGS, dox + gcv vs gcv (so in the source)) was −1.34. The log fold change ([1]; serum miRNA, NGS, dox vs pbs) was 1.13, the “avg TPM dox” value ([1]; serum miRNA, NGS) was 8.00 TPM and the “ROC Analysis AUC Senescence” value [3] was 1.000*. For the same molecule, the “ROC Analysis AUC Senolytic Treatment” value [3] was 0.672°.
With “mmu-let-7f-5p: circulating microRNA, SEQ ID No. 2 (UGAGGUAGUAGAUUGUAUAGUU; expressed or natural sequence; listed as Homo sapiens)” the log fold change ([1]; serum miRNA, NGS, dox vs pbs) was −1.29 and the “avg TPM dox” value ([1]; serum miRNA, NGS) was 178.25 TPM.
For “mmu-miR-143-3p: circulating microRNA, SEQ ID No. 4 (UGAGAUGAAGCACUGUAGCUC; expressed or natural sequence; listed as Homo sapiens)”, the log fold change ([1]; serum miRNA, NGS, dox vs pbs) was −1.57 and the “avg TPM dox” value ([1]; serum miRNA, NGS) was 393.00 TPM.
“mmu-miR-29a-3p: circulating microRNA, SEQ ID No. 22 (UAGCACCAUCUGAAAUCGGUUA; expressed or natural sequence; listed as Homo sapiens)” was tested, and the “Pearson Correlcation coefficient miR44a-5p” value [4] was 0.74 and the “Pearson Correlcation coefficient miR-27a-3p” value [4] was 0.74.
With “miR-151-5p: circulating microRNA biomarker, SEQ ID No. 17 (UCGAGGAGCUCACAGUCUAGU; expressed or natural sequence; listed as Homo sapiens)” the “regulation in serum after exposure to DOX compared to PBS” value [2] was “significantly (up- or down-regulated)”, the “One-way ANOVA Senolytic Treatment (DOX/GCV)” value [2] was “○” and the “One-way ANOVA Senescence (DOX vs PBS)” value [2] was “* (significant p < 0.05)”. For the same molecule, the “ROC Analysis AUC Senescence” value [3] was 0.828*, the “ROC Analysis AUC Senolytic Treatment” value [3] was 0.609° and the “Pearson Correlcation coefficient miR44a-5p” value [4] was 0.73. The “Pearson Correlcation coefficient miR-27a-3p” value [4] was 0.37.
For “mmu-miR-191-5p: circulating microRNA, SEQ ID No. 18 (CAACGGAAUCCCAAAAGCAGCUG; expressed or natural sequence; listed as Homo sapiens)”, the “Pearson Correlcation coefficient miR44a-5p” value [4] was 0.32 and the “Pearson Correlcation coefficient miR-27a-3p” value [4] was 0.81.
With `COc1cccc2c1C(=O)c1c(O)c3c(c(O)c1C2=O)C[C@@](O)(C(=O)CO)C[C@@H]3O[C@H]1C[C@H](N)[C@H](O)[C@H](C)O1.Cl` [Doxorubicine hydrochloride, reference compound] the “circulating miRNA levels upon induction of senescence” value ([1]; PCA of 50 most variable microRNAs, compared to PBS, in words) was “significantly changed”.
In the case of “miR-24-3p: circulating microRNA biomarker, SEQ ID No. 21 (UGGCUCAGUUCAGCAGGAACAG; expressed or natural sequence; listed as Homo sapiens)”, the “change of serum level following senolytic treatment (DOX/GCV compared to DOX)” value ([2]; p<0.05, in words) was “significantly changed”, the “One-way ANOVA Senolytic Treatment (DOX/GCV)” value [2] was “* (significant p < 0.05)” and the “One-way ANOVA Senescence (DOX vs PBS)” value [2] was “○”. For the same molecule, the “ROC Analysis AUC Senescence” value [3] was 0.609°, the “ROC Analysis AUC Senolytic Treatment” value [3] was 0.789* and the “Pearson Correlcation coefficient miR44a-5p” value [4] was 0.61. For the same molecule, the “Pearson Correlcation coefficient miR-27a-3p” value [4] was 0.89.
In the case of “mmu-miR-3058-3p: circulating microRNA, SEQ ID No. 8 (UUCCUGUCAGCCGUGGGUGCC; expressed or natural sequence; listed as Homo sapiens)”, the “Pearson Correlcation coefficient miR44a-5p” value [4] was 0.80 and the “Pearson Correlcation coefficient miR-27a-3p” value [4] was 0.54.
With “mmu-miR-6395: circulating microRNA, SEQ ID No. 12 (CUGGCCCUCUCUGCCCUGUUUA; expressed or natural sequence; listed as Homo sapiens)” the “Pearson Correlcation coefficient miR44a-5p” value [4] was 0.61 and the “Pearson Correlcation coefficient miR-27a-3p” value [4] was 0.81.

Source: patent US11814680B2, “Biomarkers for detecting senescent cells” (Universität für Bodenkultur Wien, priority 2017, dated 2023)
